Here are results for one molecule from ChEMBL document CHEMBL1156016, “Discovery of potent and selective histone deacetylase inhibitors via focused combinatorial libraries of cyclic alpha3beta-tetrapeptides” (J Med Chem, 2009).

One test can be described thus: cells. The conditions noted are these: Homo sapiens, KYO1, 72 h.
Another test addresses Histone deacetylase 1 (Homo sapiens, UniProt Q13547).
Another test addresses T1, Histone deacetylase 8 (Homo sapiens, UniProt Q9BY41).
T1 sequence (Q9BY41 whole entry): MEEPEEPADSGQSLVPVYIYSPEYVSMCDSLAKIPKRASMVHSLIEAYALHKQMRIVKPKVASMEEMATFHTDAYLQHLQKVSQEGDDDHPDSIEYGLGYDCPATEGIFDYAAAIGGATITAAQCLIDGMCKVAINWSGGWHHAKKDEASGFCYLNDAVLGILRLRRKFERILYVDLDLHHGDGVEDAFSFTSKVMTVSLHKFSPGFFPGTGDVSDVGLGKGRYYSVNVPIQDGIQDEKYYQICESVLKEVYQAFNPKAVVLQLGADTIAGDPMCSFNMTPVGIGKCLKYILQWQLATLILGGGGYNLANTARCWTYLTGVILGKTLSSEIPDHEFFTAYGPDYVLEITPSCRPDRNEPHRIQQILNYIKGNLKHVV

In test [1] the target is T2, Protein deacetylase HDAC6 (Homo sapiens, UniProt Q9UBN7).
T2 sequence (Q9UBN7 whole entry): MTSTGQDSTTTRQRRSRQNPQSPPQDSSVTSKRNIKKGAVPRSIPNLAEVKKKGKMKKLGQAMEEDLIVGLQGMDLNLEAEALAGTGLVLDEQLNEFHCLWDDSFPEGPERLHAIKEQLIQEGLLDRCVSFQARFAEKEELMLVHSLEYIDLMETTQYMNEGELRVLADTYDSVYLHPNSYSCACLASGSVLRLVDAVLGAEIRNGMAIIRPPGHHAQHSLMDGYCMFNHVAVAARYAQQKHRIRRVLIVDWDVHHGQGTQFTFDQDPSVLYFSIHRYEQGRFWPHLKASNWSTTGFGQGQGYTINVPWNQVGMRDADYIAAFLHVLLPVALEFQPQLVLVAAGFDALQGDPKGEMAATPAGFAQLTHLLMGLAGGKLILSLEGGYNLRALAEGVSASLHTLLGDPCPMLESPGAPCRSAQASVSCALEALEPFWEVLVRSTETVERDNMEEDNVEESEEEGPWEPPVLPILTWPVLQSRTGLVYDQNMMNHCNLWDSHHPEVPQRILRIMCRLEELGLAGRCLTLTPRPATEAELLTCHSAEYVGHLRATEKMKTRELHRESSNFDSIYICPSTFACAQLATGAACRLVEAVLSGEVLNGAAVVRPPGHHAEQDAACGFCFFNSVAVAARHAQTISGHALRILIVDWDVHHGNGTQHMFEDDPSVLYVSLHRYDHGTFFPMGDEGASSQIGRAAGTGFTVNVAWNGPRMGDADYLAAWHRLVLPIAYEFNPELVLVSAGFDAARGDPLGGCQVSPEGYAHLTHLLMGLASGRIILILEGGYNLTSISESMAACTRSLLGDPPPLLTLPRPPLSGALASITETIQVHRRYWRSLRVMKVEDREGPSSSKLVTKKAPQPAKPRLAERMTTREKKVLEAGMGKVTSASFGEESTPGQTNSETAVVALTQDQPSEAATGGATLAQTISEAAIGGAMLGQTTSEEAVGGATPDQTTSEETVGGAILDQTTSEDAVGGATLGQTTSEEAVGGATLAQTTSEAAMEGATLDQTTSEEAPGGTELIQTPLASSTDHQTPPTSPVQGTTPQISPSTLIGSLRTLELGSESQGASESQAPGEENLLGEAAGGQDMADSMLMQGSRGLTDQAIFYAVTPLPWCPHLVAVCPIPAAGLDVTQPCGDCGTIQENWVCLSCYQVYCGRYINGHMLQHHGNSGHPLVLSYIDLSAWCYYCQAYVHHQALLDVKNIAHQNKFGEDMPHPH
Description: Inhibition of human recombinant HDAC6 after 30 mins by fluorimetric assay

In test [2] the target is Histone deacetylase (Homo sapiens) (UniProt Q13547+O15379+Q9UBN7+Q92769+Q9UQL6+Q8WUI4+Q9BY41+Q96DB2+P56524+Q9UKV0+Q969S8). The experiment in a line: Inhibition of class 1 HDAC in human Jurkat cells assessed as acetylated histone H3 level at 0.2 to 20 uM after 24 hrs by Western blotting. In kind it is cell-based. In general terms: In western blotting, separated proteins are transferred to a membrane and probed.

Test [3] addresses T3, Protein deacetylase HDAC6 (Homo sapiens) (UniProt Q9UBN7).
T3 sequence (whole entry): T2 sequence (Q9UBN7 whole entry)
The experiment in a line: Inhibition of HDAC6 in human Jurkat cells assessed as acetylated alpha-tubulin level at 0.2 to 20 uM after 24 hrs by Western blotting. In kind it is cell-based.

A further test has as its system MCF7. The experiment in a line: cells. To be noted: Homo sapiens, MCF7, 72 h.
The target in test [4] is Histone deacetylase. Type of test: cell-based, Homo sapiens. The conditions noted are these: hela.
Description: Inhibition of HDAC in human HeLa cell cytosolic extract after 30 mins by fluorimetric assay
In the next test the test system is Jurkat. The experiment in a line: cells. The conditions noted are these: Homo sapiens, 72 h.
For the next test, the system named is HeLa. The experiment in a line: cells. To be noted: Homo sapiens, 72 h.
Another test deals with K562. The experiment in a line: cells. To be noted: Homo sapiens, K562, 72 h.
The target of another test is Histone deacetylase 3 (Homo sapiens, UniProt O15379).
The target in test [5] is Histone deacetylase. Type of test: cell-based, Homo sapiens. To be noted: hela. This is another data set of the same source.
Description: Inhibition of HDAC in human HeLa cell nuclear extract after 30 mins by fluorimetric assay

The source made the active and inactive calls. The rule behind the calls is not given here. Square brackets hold non-standard residues; d marks the D form. Peptide text beside a SMILES is read from it. 1Nal = N[C@@H](Cc1cccc2ccccc12)C(=O)O; Asu = N[C@@H](CCCCCC(=O)O)C(=O)O; β3hL = CC(C)C[C@H](N)CC(=O)O

Sequence of Histone deacetylase 3 (O15379 whole entry): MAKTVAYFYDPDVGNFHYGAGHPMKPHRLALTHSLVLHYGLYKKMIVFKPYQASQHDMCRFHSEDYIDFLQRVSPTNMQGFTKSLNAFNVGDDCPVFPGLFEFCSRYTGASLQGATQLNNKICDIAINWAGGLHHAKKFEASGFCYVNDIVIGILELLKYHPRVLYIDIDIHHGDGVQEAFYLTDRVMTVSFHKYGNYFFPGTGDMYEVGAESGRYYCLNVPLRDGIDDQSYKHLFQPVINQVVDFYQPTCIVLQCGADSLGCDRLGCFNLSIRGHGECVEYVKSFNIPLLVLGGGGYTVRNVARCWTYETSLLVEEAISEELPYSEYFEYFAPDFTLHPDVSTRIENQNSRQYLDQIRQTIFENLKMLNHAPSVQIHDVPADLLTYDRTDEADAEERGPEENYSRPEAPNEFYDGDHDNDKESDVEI
Sequence of Histone deacetylase 1 (Q13547 whole entry): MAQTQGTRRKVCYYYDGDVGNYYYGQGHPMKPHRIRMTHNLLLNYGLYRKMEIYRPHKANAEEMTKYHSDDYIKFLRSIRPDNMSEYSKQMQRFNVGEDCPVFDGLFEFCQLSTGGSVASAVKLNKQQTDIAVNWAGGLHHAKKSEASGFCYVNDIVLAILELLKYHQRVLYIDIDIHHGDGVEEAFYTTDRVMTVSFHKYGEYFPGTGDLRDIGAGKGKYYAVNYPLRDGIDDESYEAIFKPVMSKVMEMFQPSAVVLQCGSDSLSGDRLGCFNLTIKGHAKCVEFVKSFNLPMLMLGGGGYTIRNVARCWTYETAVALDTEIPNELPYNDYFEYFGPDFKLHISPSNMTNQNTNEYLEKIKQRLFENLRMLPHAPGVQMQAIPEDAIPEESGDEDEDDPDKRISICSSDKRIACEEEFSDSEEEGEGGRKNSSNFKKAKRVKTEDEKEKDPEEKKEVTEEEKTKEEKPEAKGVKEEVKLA
Description for Histone deacetylase 1: Inhibition of human recombinant HDAC1 after 30 mins by fluorimetric assay
Description for Histone deacetylase 3: Inhibition of human recombinant HDAC3 after 30 mins by fluorimetric assay
Description for Histone deacetylase 8: Inhibition of human recombinant HDAC8 after 30 mins by fluorimetric assay

By GI50 is commonly meant the concentration at which growth is held to half of that of the control. By IC50 is commonly meant the concentration needed to halve the response being measured. A low value points to greater potency. `CC(C)C[C@H]1CC(=O)N[C@@H](Cc2ccccc2)C(=O)N[C@@H](CCCCCC(=O)O)C(=O)N[C@@H](Cc2cccc3ccccc23)C(=O)N1` (cyclo([1Nal][β3hL]F[Asu])): the concentration for 50% growth inhibition (GI50) in the test “cells”, in the test on MCF7, in the test with Jurkat, with HeLa and in the test with K562 was more than 20 µM each time. For the same molecule, the IC50 at Histone deacetylase 1 stood at 68 nM; against Histone deacetylase 8, 530 nM; in test [1], 5.8 µM; on Histone deacetylase [4], 742 nM; against Histone deacetylase 3, 690 nM; on Histone deacetylase [5], 253 nM. For the same molecule, the result in [2] was Active. In addition, the result in [3] was inactive.
